Assay results from US8557800B2, “Sphingosine kinase inhibitors” (Apogee Biotechnology Corporation, priority 2005, dated 2013).

Columns and labels:
T24 (bladder) = assay: Human tumor cell line panel, sulforhodamine B; assay type: cell-based; settings: 48 hours, mean ± sd
MDA-MB-231 (breast, ER−) = assay: Human tumor cell line panel, sulforhodamine B; assay type: cell-based; settings: 48 hours, mean ± sd
[1] = test system: VEGF-induced vascular leakage; assay: VEGF-induced vascular permeability (Miles assay); assay type: in vivo, mouse; settings: 75 mg/kg intraperitoneal or 100 mg/kg oral gavage, nude mice
Procedure: The effects of VEGF on vascular leakage in vivo were measured as described by Miles and Miles (Miles et al., 1952, J Physiol 118: 228). Groups of female athymic nude mice (approximately 20 g) were given intraperitoneal injections of DMSO alone or Compound 62 (75 mg/kg) in a volume of 50 microliters. In some experiments, Compound 62 was administered by oral gavage at a dose of 100 mg/kg. After 30 minutes, 100 μL of 0.5% Evan's blue dye in PBS was administered by tail vein injection. Thirty minutes later, mice received the first of 3 sequential (every 30 minutes) intradermal injections of VEGF (400 ng in 20 μL of PBS per injection) on the left hind flank. As a control, similar injections of PBS were administered on the right hind flank. Thirty minutes after the last injection, leakage of the dye from the vasculature into the skin was assessed by measuring the length and width of the spots of blue-colored skin using calipers.

[2] = test system: female DBA/1 mice, collagen-induced arthritis; assay: Collagen-Induced Arthritis (CIA) model; assay type: in vivo, mouse; settings: Day 12
Procedure: The anti-arthritis activities of the SK inhibitor Compound 62 were assessed in the Collagen-Induced Arthritis (CIA) model. Female DBA/1 mice were injected subcutaneously in the tail with chicken immunization-grade type II collagen (Chondrex) emulsified in complete Freund's adjuvant (Sigma) at 2 mg/mL. Three weeks later, the mice received a collagen booster in incomplete Freund's adjuvant and were monitored daily thereafter for arthritic symptoms. […] The severity of disease in each animal was quantified by measurement of the hind paw volume with digital calipers. […] Differences among treatment groups were tested using ANOVA.

HT-29 (colon) = assay: Human tumor cell line panel, sulforhodamine B; assay type: cell-based; settings: 48 hours, mean ± sd
Panc-1 (pancreas) = assay: Human tumor cell line panel, sulforhodamine B; assay type: cell-based; settings: 48 hours, mean ± sd
Protein kinase C α = Protein kinase C α (Homo sapiens, UniProt P17252); assay: Kinase selectivity panel; assay type: biochemical; settings: read-out: percent of control activity, Protein kinase C α
Procedure: (§1) A common problem with attempts to develop protein kinase inhibitors is the lack of selectivity toward the target kinase since the majority of these compounds interact with nucleotide-binding domains that are highly conserved among kinases. […] The compound was tested at a single concentration of 50 μM.

P38 MAP kinase 1 = P38 MAP kinase 1 (Homo sapiens, UniProt Q16539); assay: Kinase selectivity panel; assay type: biochemical; settings: read-out: percent of control activity, P38 MAP kinase 1
Procedure: as §1

PKBγ = PKBγ (Homo sapiens, UniProt Q9Y243); assay: Kinase selectivity panel; assay type: biochemical; settings: read-out: percent of control activity, PKBγ
Procedure: as §1

IKKα = IKKα (Homo sapiens, UniProt O15111); assay: Kinase selectivity panel; assay type: biochemical; settings: read-out: percent of control activity, IKKα
Procedure: as §1

EFGR = EFGR (Homo sapiens, UniProt P00533); assay: Kinase selectivity panel; assay type: biochemical; settings: read-out: percent of control activity, EFGR
Procedure: as §1

CDK1/cyclinB = CDK1/cyclinB (Homo sapiens, UniProt P06493); assay: Kinase selectivity panel; assay type: biochemical; settings: read-out: percent of control activity, CDK1/cyclinB
Procedure: as §1

cSrc = cSrc (Homo sapiens, UniProt P12931); assay: Kinase selectivity panel; assay type: biochemical; settings: read-out: percent of control activity, cSrc
Procedure: as §1

PDK1 = PDK1 (Homo sapiens, UniProt O15530); assay: Kinase selectivity panel; assay type: biochemical; settings: read-out: percent of control activity, PDK1
Procedure: as §1

Abl = Abl (Homo sapiens, UniProt P00519); assay: Kinase selectivity panel; assay type: biochemical; settings: read-out: percent of control activity, Abl
Procedure: as §1

cRaf = cRaf (Homo sapiens, UniProt P04049); assay: Kinase selectivity panel; assay type: biochemical; settings: read-out: percent of control activity, cRaf
Procedure: as §1

P38 MAP kinase 2 = P38 MAP kinase 2 (Homo sapiens, UniProt Q15759); assay: Kinase selectivity panel; assay type: biochemical; settings: read-out: percent of control activity, P38 MAP kinase 2
Procedure: as §1

Fyn = Fyn (Homo sapiens, UniProt P06241); assay: Kinase selectivity panel; assay type: biochemical; settings: read-out: percent of control activity, Fyn
Procedure: as §1

CDK2/cyclinE = CDK2/cyclinE (Homo sapiens, UniProt P24941); assay: Kinase selectivity panel; assay type: biochemical; settings: read-out: percent of control activity, CDK2/cyclinE
Procedure: as §1

CHK1 = CHK1 (Homo sapiens, UniProt O14757); assay: Kinase selectivity panel; assay type: biochemical; settings: read-out: percent of control activity, CHK1
Procedure: as §1

MEK kinase 1 = assay: Kinase selectivity panel; assay type: biochemical; settings: 50 μM
Procedure: as §1

Ca^2+/calmodulin PK IV = Ca^2+/calmodulin PK IV (Homo sapiens, UniProt Q16566); assay: Kinase selectivity panel; assay type: biochemical; settings: read-out: percent of control activity, Ca^2+/calmodulin PK IV
Procedure: as §1

Aurora-A = Aurora-A (Homo sapiens, UniProt O14965); assay: Kinase selectivity panel; assay type: biochemical; settings: read-out: percent of control activity, Aurora-A
Procedure: as §1

Protein kinase C ε = Protein kinase C ε (Homo sapiens, UniProt Q02156); assay: Kinase selectivity panel; assay type: biochemical; settings: read-out: percent of control activity, Protein kinase C ε
Procedure: as §1

PKA = PKA (Homo sapiens, UniProt P17612); assay: Kinase selectivity panel; assay type: biochemical; settings: read-out: percent of control activity, PKA
Procedure: as §1

PKBα = PKBα (Homo sapiens, UniProt P31749); assay: Kinase selectivity panel; assay type: biochemical; settings: read-out: percent of control activity, PKBα
Procedure: as §1

MCF-7 (breast, ER+) = assay: Human tumor cell line panel, sulforhodamine B; assay type: cell-based; settings: MCF7, 48 hours, mean ± sd
[3] = 100 mg/kg orally each day 6 days per week

Sequence of CDK1/cyclinB (P06493 whole entry, species assumed): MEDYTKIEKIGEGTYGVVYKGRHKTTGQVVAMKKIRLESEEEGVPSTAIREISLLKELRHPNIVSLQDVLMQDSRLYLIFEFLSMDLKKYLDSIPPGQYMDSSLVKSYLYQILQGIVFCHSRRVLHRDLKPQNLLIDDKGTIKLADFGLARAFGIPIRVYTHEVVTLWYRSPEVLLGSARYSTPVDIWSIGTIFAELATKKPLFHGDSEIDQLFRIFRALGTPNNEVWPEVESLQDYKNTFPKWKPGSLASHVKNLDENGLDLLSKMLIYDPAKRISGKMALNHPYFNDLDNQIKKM
Sequence of CDK1/cyclinB (P14635 whole entry partner, species assumed): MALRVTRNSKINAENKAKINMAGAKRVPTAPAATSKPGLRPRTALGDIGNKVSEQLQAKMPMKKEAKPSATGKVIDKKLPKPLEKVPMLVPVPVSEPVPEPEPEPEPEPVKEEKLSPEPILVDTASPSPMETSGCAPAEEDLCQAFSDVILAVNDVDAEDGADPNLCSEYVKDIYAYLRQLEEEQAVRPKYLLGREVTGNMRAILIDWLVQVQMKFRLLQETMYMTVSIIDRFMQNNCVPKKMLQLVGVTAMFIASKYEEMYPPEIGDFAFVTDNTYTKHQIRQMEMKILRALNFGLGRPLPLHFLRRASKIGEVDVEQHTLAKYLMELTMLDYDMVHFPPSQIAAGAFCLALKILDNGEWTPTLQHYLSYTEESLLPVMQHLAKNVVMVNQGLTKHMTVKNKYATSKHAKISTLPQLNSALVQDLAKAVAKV
Sequence of PKBγ (Q9Y243 whole entry, species assumed): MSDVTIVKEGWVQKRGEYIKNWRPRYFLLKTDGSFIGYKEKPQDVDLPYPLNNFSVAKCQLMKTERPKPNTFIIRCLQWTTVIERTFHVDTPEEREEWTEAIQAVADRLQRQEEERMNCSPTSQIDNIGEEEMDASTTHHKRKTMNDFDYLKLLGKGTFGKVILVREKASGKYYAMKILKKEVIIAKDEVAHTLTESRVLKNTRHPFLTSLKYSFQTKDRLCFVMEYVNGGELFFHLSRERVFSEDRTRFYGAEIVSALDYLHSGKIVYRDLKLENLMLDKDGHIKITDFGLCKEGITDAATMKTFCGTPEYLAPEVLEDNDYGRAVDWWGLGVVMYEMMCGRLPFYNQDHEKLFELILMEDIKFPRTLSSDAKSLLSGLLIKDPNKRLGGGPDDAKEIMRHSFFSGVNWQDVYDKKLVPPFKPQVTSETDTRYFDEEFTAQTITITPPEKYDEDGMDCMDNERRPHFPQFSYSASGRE
Sequence of IKKα (O15111 whole entry, species assumed): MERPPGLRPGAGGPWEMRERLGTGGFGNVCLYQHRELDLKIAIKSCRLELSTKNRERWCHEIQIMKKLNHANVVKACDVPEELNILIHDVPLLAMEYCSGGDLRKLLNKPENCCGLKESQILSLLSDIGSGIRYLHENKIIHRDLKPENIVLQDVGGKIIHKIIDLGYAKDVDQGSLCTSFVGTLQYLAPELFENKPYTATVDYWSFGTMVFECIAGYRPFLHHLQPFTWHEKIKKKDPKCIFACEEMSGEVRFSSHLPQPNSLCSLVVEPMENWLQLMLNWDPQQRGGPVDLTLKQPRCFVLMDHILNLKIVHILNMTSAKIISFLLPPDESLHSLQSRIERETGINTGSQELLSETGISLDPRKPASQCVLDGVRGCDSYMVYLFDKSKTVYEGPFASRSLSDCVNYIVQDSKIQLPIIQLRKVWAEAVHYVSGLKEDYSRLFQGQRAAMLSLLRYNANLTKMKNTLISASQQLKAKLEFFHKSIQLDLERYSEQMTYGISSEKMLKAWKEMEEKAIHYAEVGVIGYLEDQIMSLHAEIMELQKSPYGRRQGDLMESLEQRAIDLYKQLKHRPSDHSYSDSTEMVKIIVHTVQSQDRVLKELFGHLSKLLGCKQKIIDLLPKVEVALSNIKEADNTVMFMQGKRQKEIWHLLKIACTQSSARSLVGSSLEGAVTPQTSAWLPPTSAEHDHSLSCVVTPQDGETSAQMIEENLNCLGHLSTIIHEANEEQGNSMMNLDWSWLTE
Sequence of PKBα (P31749 whole entry, species assumed): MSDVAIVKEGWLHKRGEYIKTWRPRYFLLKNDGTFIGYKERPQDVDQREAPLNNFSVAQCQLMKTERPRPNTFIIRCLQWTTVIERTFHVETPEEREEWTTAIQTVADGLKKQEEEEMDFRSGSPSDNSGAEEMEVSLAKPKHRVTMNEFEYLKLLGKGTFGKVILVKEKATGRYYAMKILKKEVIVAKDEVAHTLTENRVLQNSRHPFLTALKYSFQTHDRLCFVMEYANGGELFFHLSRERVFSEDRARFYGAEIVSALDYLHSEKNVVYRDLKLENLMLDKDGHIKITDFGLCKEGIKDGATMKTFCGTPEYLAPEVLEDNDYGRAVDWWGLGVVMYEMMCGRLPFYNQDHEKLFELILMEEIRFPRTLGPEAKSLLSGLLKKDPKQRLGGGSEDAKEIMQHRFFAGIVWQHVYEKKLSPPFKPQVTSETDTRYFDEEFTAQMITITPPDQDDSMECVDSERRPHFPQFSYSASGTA
Sequence of PDK1 (O15530 whole entry): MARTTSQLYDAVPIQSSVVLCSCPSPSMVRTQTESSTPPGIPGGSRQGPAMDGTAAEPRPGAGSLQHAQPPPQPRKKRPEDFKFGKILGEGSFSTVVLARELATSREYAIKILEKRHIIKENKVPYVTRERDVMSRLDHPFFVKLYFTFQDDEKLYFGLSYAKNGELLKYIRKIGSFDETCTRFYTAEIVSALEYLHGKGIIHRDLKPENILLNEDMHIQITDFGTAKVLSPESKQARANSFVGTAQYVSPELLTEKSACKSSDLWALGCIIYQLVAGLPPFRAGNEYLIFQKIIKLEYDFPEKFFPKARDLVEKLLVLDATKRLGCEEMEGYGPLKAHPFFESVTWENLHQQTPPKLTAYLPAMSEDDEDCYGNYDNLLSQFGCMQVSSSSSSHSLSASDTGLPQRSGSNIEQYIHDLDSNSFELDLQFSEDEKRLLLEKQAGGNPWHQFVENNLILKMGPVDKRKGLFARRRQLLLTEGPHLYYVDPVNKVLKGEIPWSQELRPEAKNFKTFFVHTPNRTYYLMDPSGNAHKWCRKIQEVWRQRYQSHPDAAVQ
Sequence of P38 MAP kinase 1 (Q16539 whole entry): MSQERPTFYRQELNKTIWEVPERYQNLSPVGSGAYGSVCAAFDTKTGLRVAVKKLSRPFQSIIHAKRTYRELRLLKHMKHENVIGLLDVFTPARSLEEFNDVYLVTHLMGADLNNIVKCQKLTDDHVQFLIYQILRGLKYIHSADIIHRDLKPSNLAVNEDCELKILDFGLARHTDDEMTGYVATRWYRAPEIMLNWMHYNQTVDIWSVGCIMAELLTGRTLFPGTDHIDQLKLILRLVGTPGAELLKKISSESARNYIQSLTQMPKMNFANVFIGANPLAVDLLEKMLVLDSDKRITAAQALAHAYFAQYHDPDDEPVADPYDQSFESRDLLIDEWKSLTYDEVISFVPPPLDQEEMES
Sequence of Aurora-A (O14965 whole entry): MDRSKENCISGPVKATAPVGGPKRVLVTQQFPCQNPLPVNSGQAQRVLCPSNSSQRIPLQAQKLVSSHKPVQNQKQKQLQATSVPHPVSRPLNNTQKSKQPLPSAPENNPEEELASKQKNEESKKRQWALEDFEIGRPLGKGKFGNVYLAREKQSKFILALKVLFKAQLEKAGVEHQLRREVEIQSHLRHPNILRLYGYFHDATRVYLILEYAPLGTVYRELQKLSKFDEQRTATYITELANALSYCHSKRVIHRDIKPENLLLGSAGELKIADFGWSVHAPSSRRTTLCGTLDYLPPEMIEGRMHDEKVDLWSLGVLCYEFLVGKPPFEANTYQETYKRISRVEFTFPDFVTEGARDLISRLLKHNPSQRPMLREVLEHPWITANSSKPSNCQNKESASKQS
Sequence of cRaf (P04049 whole entry, species assumed): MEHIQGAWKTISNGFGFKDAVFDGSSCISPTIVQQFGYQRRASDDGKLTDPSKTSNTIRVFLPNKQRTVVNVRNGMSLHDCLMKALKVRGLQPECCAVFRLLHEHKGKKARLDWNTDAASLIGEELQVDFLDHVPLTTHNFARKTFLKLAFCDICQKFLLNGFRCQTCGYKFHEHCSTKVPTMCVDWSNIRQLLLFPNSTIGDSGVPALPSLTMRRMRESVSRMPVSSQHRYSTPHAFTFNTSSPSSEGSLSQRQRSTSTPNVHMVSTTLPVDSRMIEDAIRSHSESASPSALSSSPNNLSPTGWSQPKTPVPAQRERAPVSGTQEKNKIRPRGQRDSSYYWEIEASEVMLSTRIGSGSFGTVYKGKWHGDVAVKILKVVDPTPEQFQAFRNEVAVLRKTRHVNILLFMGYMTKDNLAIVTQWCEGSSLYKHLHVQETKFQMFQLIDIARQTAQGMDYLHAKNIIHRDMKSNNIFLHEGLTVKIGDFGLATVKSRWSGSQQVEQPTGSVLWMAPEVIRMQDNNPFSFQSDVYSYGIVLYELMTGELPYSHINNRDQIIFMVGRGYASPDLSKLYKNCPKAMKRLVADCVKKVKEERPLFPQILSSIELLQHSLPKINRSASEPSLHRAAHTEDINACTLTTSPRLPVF
Sequence of Fyn (P06241 whole entry, species assumed): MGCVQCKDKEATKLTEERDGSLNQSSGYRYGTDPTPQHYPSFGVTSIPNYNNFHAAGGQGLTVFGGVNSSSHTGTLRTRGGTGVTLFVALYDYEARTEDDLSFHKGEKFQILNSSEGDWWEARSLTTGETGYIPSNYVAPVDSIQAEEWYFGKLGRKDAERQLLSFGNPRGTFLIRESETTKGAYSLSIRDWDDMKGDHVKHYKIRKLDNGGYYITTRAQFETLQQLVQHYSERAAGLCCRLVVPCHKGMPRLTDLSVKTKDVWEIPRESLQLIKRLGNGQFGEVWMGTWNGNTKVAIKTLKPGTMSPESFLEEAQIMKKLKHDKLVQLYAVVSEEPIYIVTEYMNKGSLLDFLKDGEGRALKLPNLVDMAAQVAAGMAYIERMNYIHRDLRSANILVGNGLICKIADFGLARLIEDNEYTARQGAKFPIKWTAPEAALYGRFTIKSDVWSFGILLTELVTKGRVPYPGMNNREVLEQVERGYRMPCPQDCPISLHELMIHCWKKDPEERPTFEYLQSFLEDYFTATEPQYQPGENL

Compound: O=C(NCc1ccncc1)C12CC3CC(C1)CC(c1ccc(Cl)cc1)(C3)C2 [Compound 62, 3-(4-Chloro-phenyl)-adamantane-1-carboxylic acid (pyridin-4-ylmethyl)-amide]
- IC50 (T24 (bladder)): 39.4 ± 7.4 µM
- IC50 (MDA-MB-231 (breast, ER−)): 29.1 ± 11.1 µM
- vascular leakage in response to VEGF [1]: markedly reduced
- reduction in clinical score vs vehicle [2, 3]: 67%
- reduction in the increase in hind paw thickness vs vehicle [2, 3]: 90%
- histologic damage of tibiotarsal joints ([2]; 100 mg/kg orally): significantly reduced
- IC50 (HT-29 (colon)): 48.1 ± 7.6 µM
- IC50 (Panc-1 (pancreas)): 32.8 ± 0.1 µM
- remaining activity at 50 µM (Protein kinase C α): 86 ± 5%
- remaining activity at 50 µM (P38 MAP kinase 1): 94 ± 2%
- remaining activity at 50 µM (PKBγ): 105 ± 8%
- remaining activity at 50 µM (IKKα): 150 ± 16%
- remaining activity at 50 µM (EFGR): 101 ± 3%
- remaining activity at 50 µM (CDK1/cyclinB): 105 ± 1%
- remaining activity at 50 µM (cSrc): 115 ± 3%
- remaining activity at 50 µM (PDK1): 116 ± 3%
- remaining activity at 50 µM (Abl): 98%
- remaining activity at 50 µM (cRaf): 96 ± 5%
- remaining activity at 50 µM (P38 MAP kinase 2): 109 ± 5%
- remaining activity at 50 µM (Fyn): 84 ± 5%
- remaining activity at 50 µM (CDK2/cyclinE): 106 ± 6%
- remaining activity at 50 µM (CHK1): 142 ± 13%
- percent of control activity, MEK kinase 1 (MEK kinase 1): 104 ± 3%
- remaining activity at 50 µM (Ca^2+/calmodulin PK IV): 81 ± 3%
- remaining activity at 50 µM (Aurora-A): 103 ± 1%
- remaining activity at 50 µM (Protein kinase C ε): 101 ± 1%
- remaining activity at 50 µM (PKA): 104 ± 5%
- remaining activity at 50 µM (PKBα): 95 ± 2%
- IC50 (MCF-7 (breast, ER+)): 18.4 ± 7.4 µM
